Series [1] has as its system LNCaP (human prostate cancer cells). The experiment in a line: Anti-proliferative activity on LNCaP cell line (WST1 colorimetric test). The class given is cell-based. The conditions noted are these: treated for 96 hours, read-out: IC50 on the cell proliferation of the LNCaP lines. On the procedure: (§1) By way of example, the effect of a treatment on three human cell lines DU145, LNCaP and A2058 with the compounds of the examples described previously will be studied. The cell lines DU145 and LNCaP (human prostate cancer cells) and A2058 (human melanoma cancer cells) were acquired from the American Tissue Culture Collection (Rockville, Md., USA). The cells placed in 80 μl of Dulbecco's Modified Eagle medium (Gibco-Brl, Cergy-Pontoise, France) completed with 10% foetal calf serum inactivated by heating (Gibco-Brl, Cergy-Pontoise, France), 50000 units/l of penicillin and 50 mg/l streptomycin (Gibco-Brl, Cergy-Pontoise, France), and 2 mM of glutamin (Gibco-Brl, Cergy-Pontoise, France) were seeded on a 96-well plate on day 0. The cells were treated on day 1 for 96 hours with increasing concentrations of each of the compounds to be tested up to 10 μM. At the end of this period, the quantification of the cell proliferation is evaluated by a colorimetric test based on the cleavage of the tetrazolium salt WST1 by mitochondrial dehydrogenases in the viable cells leading to the formation of formazan (Boehringer Mannheim, Meylan, France). These tests are carried out in duplicate with 8 determinations per tested concentration. For each compound to be tested, the values included in the linear part of the sigmoid were retained for linear regression analysis and used in order to estimate the inhibitory concentration IC50. The products are solubilized in dimethylsulphoxide (DMSO) at 10^−2 M and finally used in culture with 0.1% DMSO.
(In general: Formazan colour is commonly taken as a measure of viable cells.)

The subject of series [2] is A2058 (human melanoma cancer cells). Briefly: Anti-proliferative activity on A2058 cell line (WST1 colorimetric test). Type of series: cell-based. The conditions noted are these: treated for 96 hours, read-out: IC50 on the cell proliferation of the A2058 lines. The protocol: as §1

The structures appear in SMILES notation. Structures can show the parent of a compound that is named as a salt.

The source of these data is patent US20100222332A1, “PYRAZOLO-PYRAZINES DERIVATIVES USED AS G PROTEIN INHIBITORS” (Ipsen Pharma S.A.S., priority 2007, published 2010).

By melting point is commonly meant the temperature of the solid-liquid transition.

On to `CC(C)(C)OC(=O)N[C@@H](CSSC[C@H](NC(=O)OC(C)(C)C)C(=O)N1CCn2nc(-c3ccncc3)cc2C1CCc1ccccc1)C(=O)N1CCn2nc(-c3ccncc3)cc2C1CCc1ccccc1` (mixture of isomers) [Example 3, tert-butyl {(1R)-1-[({(2R)-2-[(tert-butoxycarbonyl)amino]-3-oxo-3-[(4RS)-4-(2-phenylethyl)-2-pyridin-4-yl-6,7-dihydropyrazolo[1,5-a]pyrazin-5(4H)-yl]propyl}dithio)methyl]-2-oxo-2-[(4RS)-4-(2-phenylethyl)-2-pyridin-4-yl-6,7-dihydropyrazolo[1,5-a]pyrazin-5(4H)-yl]ethyl}carbamate] [listing 1 of 2 here], for which, in series [1], the IC50 is at most 10 µM.

On to `N[C@@H](CSSC[C@H](N)C(=O)N1CCn2nc(-c3ccncc3)cc2C1CCc1ccccc1)C(=O)N1CCn2nc(-c3ccncc3)cc2C1CCc1ccccc1` (mixture of isomers) [Example 14, (2R)-3-({(2R)-2-amino-3-oxo-3-[(4RS)-4-(2-phenylethyl)-2-pyridin-4-yl-6,7-dihydropyrazolo[1,5-a]pyrazin-5(4H)-yl]propyl}dithio)-1-oxo-1-[(4RS)-4-(2-phenylethyl)-2-pyridin-4-yl-6,7-dihydropyrazolo[1,5-a]pyrazin-5(4H)-yl]propan-2-amine hydrochloride], for which the IC50 in series [1] was at most 10 µM; in series [2], at most 30 µM.

As for `N[C@@H](CSSC[C@H](N)C(=O)N1CCn2nc(-c3cccnc3)cc2C1CCc1ccccc1)C(=O)N1CCn2nc(-c3cccnc3)cc2C1CCc1ccccc1` (mixture of isomers) [Example 15, (2R)-3-({(2R)-2-amino-3-oxo-3-[(4RS)-4-(2-phenylethyl)-2-pyridin-3-yl-6,7-dihydropyrazolo[1,5-a]pyrazin-5(4H)-yl]propyl}dithio)-1-oxo-1-[(4RS)-4-(2-phenylethyl)-2-pyridin-3-yl-6,7-dihydropyrazolo[1,5-a]pyrazin-5(4H)-yl]propan-2-amine hydrochloride], the IC50 in series [1] is at most 10 µM; in series [2] it was at most 20 µM.

In the case of `CC(C)(C)OC(=O)N[C@@H](CSSC[C@H](NC(=O)OC(C)(C)C)C(=O)N1CCn2nc(-c3ccccc3)cc2C1CC1CCCCC1)C(=O)N1CCn2nc(-c3ccccc3)cc2C1CC1CCCCC1` (mixture of isomers) [Example 1, tert-butyl {(1R)-1-[({(2R)-2-[(tert-butoxycarbonyl)amino]-3-[(4RS)-4-(cyclohexylmethyl)-2-phenyl-6,7-dihydropyrazolo[1,5-a]pyrazin-5(4H)-yl]-3-oxopropyl}dithio)methyl]-2-[(4RS)-4-(cyclohexylmethyl)-2-phenyl-6,7-dihydropyrazolo[1,5-a]pyrazin-5(4H)-yl]-2-oxoethyl}carbamate], the melting point lay in the range of 129 to 132 °C.

For `CC(C)(C)OC(=O)N[C@@H](CSSC[C@H](NC(=O)OC(C)(C)C)C(=O)N1CCn2nc(-c3ccccc3)cc2C1CCc1ccccc1)C(=O)N1CCn2nc(-c3ccccc3)cc2C1CCc1ccccc1` (mixture of isomers) [Example 2, tert-butyl {(1R)-1-[({(2R)-2-[(tert-butoxycarbonyl)amino]-3-oxo-3-[(4RS)-2-phenyl-4-(2-phenylethyl)-6,7-dihydropyrazolo[1,5-a]pyrazin-5(4H)-yl]propyl}dithio)methyl]-2-oxo-2-[(4RS)-2-phenyl-4-(2-phenylethyl)-6,7-dihydropyrazolo[1,5-a]pyrazin-5(4H)-yl]ethyl}carbamate], the melting point lay within 123 to 127 °C.

For the molecule `CC(C)(C)OC(=O)N[C@@H](CSSC[C@H](NC(=O)OC(C)(C)C)C(=O)N1CCn2nc(-c3ccncc3)cc2C1CCc1ccccc1)C(=O)N1CCn2nc(-c3ccncc3)cc2C1CCc1ccccc1` (mixture of isomers) [Example 3, tert-butyl {(1R)-1-[({(2R)-2-[(tert-butoxycarbonyl)amino]-3-oxo-3-[(4RS)-4-(2-phenylethyl)-2-pyridin-4-yl-6,7-dihydropyrazolo[1,5-a]pyrazin-5(4H)-yl]propyl}dithio)methyl]-2-oxo-2-[(4RS)-4-(2-phenylethyl)-2-pyridin-4-yl-6,7-dihydropyrazolo[1,5-a]pyrazin-5(4H)-yl]ethyl}carbamate] [listing 2 of 2 here], the melting point was 149 to 152 °C.

For the molecule `CC(C)(C)OC(=O)N[C@@H](CSSC[C@H](NC(=O)OC(C)(C)C)C(=O)N1CCn2nc(-c3cccnc3)cc2C1CCc1ccccc1)C(=O)N1CCn2nc(-c3cccnc3)cc2C1CCc1ccccc1` (mixture of isomers) [Example 4, tert-butyl {(1R)-1-[({(2R)-2-[(tert-butoxycarbonyl)amino]-3-oxo-3-[(4RS)-4-(2-phenylethyl)-2-pyridin-3-yl-6,7-dihydropyrazolo[1,5-a]pyrazin-5(4H)-yl]propyl}dithio)methyl]-2-oxo-2-[(4RS)-4-(2-phenylethyl)-2-pyridin-3-yl-6,7-dihydropyrazolo[1,5-a]pyrazin-5(4H)-yl]ethyl}carbamate], the melting point is 115 to 130 °C.

In turn, `COc1cc(-c2cc3n(n2)CCN(C(=O)[C@H](CSSC[C@H](NC(=O)OC(C)(C)C)C(=O)N2CCn4nc(-c5cc(OC)c(OC)c(OC)c5)cc4C2CCc2ccccc2)NC(=O)OC(C)(C)C)C3CCc2ccccc2)cc(OC)c1OC` (mixture of isomers) [Example 6, tert-butyl {(1R)-1-[({(2R)-2-[(tert-butoxycarbonyl)amino]-3-oxo-3-[(4RS)-4-(2-phenylethyl)-2-(3,4,5-trimethoxyphenyl)-6,7-dihydropyrazolo[1,5-a]pyrazin-5(4H)-yl]propyl}dithio)methyl]-2-oxo-2-[(4RS)-4-(2-phenylethyl)-2-(3,4,5-trimethoxyphenyl)-6,7-dihydropyrazolo[1,5-a]pyrazin-5(4H)-yl]ethyl}carbamate] returned a melting point of 130 to 136 °C.

Regarding `CC(C)(C)OC(=O)N[C@@H](CSSC[C@H](NC(=O)OC(C)(C)C)C(=O)N1CCn2nc(-c3cccs3)cc2C1CCc1ccccc1)C(=O)N1CCn2nc(-c3cccs3)cc2C1CCc1ccccc1` (mixture of isomers) [Example 7, tert-butyl {(1R)-1-[({(2R)-2-[(tert-butoxycarbonyl)amino]-3-oxo-3-[(4RS)-4-(2-phenylethyl)-2-(2-thienyl)-6,7-dihydropyrazolo[1,5-a]pyrazin-5(4H)-yl]propyl}dithio)methyl]-2-oxo-2-[(4RS)-4-(2-phenylethyl)-2-(2-thienyl)-6,7-dihydropyrazolo[1,5-a]pyrazin-5(4H)-yl]ethyl}carbamate], the melting point is 105 to 112 °C.

As for `CCCCC1c2cc(-c3ccccc3)nn2CCN1C(=O)[C@H](CSSC[C@H](NC(=O)OC(C)(C)C)C(=O)N1CCn2nc(-c3ccccc3)cc2C1CCCC)NC(=O)OC(C)(C)C` (mixture of isomers) [Example 10, tert-butyl {(1R)-1-[({(2R)-2-[(tert-butoxycarbonyl)amino]-3-[(4RS)-4-butyl-2-phenyl-6,7-dihydropyrazolo[1,5-a]pyrazin-5(4H)-yl]-3-oxopropyl}dithio)methyl]-2-[(4RS)-4-butyl-2-phenyl-6,7-dihydropyrazolo[1,5-a]pyrazin-5(4H)-yl]-2-oxoethyl}carbamate], the melting point lay within 95 to 102 °C.

Turning to `CC(C)(C)OC(=O)N[C@@H](CSSC[C@H](NC(=O)OC(C)(C)C)C(=O)N1CCCn2nc(-c3ccccc3)cc2C1CC1CCCCC1)C(=O)N1CCCn2nc(-c3ccccc3)cc2C1CC1CCCCC1` (mixture of isomers) [Example 27, tert-butyl {(1R)-1-[({(2R)-2-[(tert-butoxycarbonyl)amino]-3-[(4RS)-4-(cyclohexylmethyl)-2-phenyl-7,8-dihydro-4H-pyrazolo[1,5-a][1,4]diazepin-5(6H)-yl]-3-oxopropyl}dithio)methyl]-2-[(4RS)-4-(cyclohexylmethyl)-2-phenyl-7,8-dihydro-4H-pyrazolo[1,5-a][1,4]diazepin-5(6H)-yl]-2-oxoethyl}carbamate], the melting point lay in the range of 105 to 116 °C.

With `CC(C)(C)OC(=O)N[C@@H](CSSC[C@H](NC(=O)OC(C)(C)C)C(=O)N1CCn2nc(-c3ccccc3)cc2[C@@H]1CC1CCCCC1)C(=O)N1CCn2nc(-c3ccccc3)cc2[C@@H]1CC1CCCCC1` [Example 23, tert-butyl {(1R)-1-[({(2R)-2-[(tert-butoxycarbonyl)amino]-3-[(4S)-4-(cyclohexylmethyl)-2-phenyl-6,7-dihydropyrazolo[1,5-a]pyrazin-5(4H)-yl]-3-oxopropyl}dithio)methyl]-2-[(4S)-4-(cyclohexylmethyl)-2-phenyl-6,7-dihydropyrazolo[1,5-a]pyrazin-5(4H)-yl]-2-oxoethyl}carbamate], the melting point was 106 to 108 °C.

As to `CC(C)(C)OC(=O)N[C@@H](CSSC[C@H](NC(=O)OC(C)(C)C)C(=O)N1CCn2nc(-c3ccccc3)cc2[C@H]1CC1CCCCC1)C(=O)N1CCn2nc(-c3ccccc3)cc2[C@H]1CC1CCCCC1` [Example 25, tert-butyl {(1R)-1-[({(2R)-2-[(tert-butoxycarbonyl)amino]-3-[(4R)-4-(cyclohexylmethyl)-2-phenyl-6,7-dihydropyrazolo[1,5-a]pyrazin-5(4H)-yl]-3-oxopropyl}dithio)methyl]-2-[(4R)-4-(cyclohexylmethyl)-2-phenyl-6,7-dihydropyrazolo[1,5-a]pyrazin-5(4H)-yl]-2-oxoethyl}carbamate], the melting point was 114 to 139 °C.
